Molecular target: human Thrombin (Homo sapiens, UniProt P00734)
Assay: In vitro assay for inhibition of Thrombin (chromogenic or fluorogenic assay)
Type: biochemical
Settings: Example 2 chromogenic assay, other Examples fluorogenic assay, read-out: thrombin inhibitory Ki
Description: Thrombin inhibitory activity is measured by the ability to inhibit human α-thrombin in a chromogenic assay using N-p-tosyl-gly-pro-lys p-nitroanilide as the chromogenic substrate, or in a fluorogenic assay using Rhodamine 110, bis-(CBZ-L-valyl-L-prolyl-L-arginine amide) as the fluorogenic substrate.
The compound was diluted from a 10 mM stock solution in dimethylsulfoxide at appropriate concentrations. Assay was performed at room temperature using buffer consisting of: 50 mM HEPES, 150 mM NaCl, 5 mM CaCl2, 0.1% PEG, pH 7.4. containing human Thrombin (final conc. of 1 nM). Compound and enzyme were preincubated for 15 min prior to addition of the substrate (final conc. of 100 μM). The reaction was stopped after 30 min with the addition of soybean trypsin inhibitor or H-D-PHE-PRO-ARG-Chloromethylketone. […] To obtain IC50 values the data were analysed using ActivityBase® and XLfit®.
Compounds were diluted from a 10 mM stock solution in dimethylsulfoxide at appropriate concentrations. Assay was performed at room temperature using buffer consisting of: 50 mM HEPES, 150 mM NaCl, 5 mM CaCl2, 0.1% PEG, pH 7.4. containing human Thrombin (final conc. Of 0.2 nM). Compound and enzyme were preincubated for 15 min prior to addition of the substrate (final conc. of 10 μM). The reaction was stopped after 3 hrs with the addition of H-D-PHE-PRO-ARG-Chloromethylketone. […] To obtain IC50 values the data were analysed using ActivityBase® and XLfit®.

Row | SMILES | Ki [nM]
1 | CC[C@H](C)[C@@H](C(=O)N1CCOCC1)N1CC[C@H](N(CC(=O)N(C)C)S(=O)(=O)CCc2ccc(Cl)s2)C1=O [Example 40, N^2-{[2-(5-chlorothien-2-yl)ethyl]sulfonyl)-N^1,N^1-dimethyl-N^2-{(3S)-1-[(1S,2S)-2-methyl-1-(morpholin-4-ylcarbonyl)butyl]-2-oxopyrrolidin-3-yl}glycinamide] | < 10
2 | COC[C@@H](C(=O)N1CCOCC1)N1CC[C@H](NS(=O)(=O)CC2COc3cc(Cl)ccc32)C1=O (stereo partly drawn) [Example 65, 1-(6-chloro-2,3-dihydro-1-benzofuran-3-yl)-N-{(3S)-1-[(1S)-1-[(methyloxy)methyl]-2-(4-morpholinyl)-2-oxoethyl]-2-oxo-3-pyrrolidinyl}methanesulfonamide] | < 100
3 | CO[C@H](C)[C@@H](C(=O)N1CCOCC1)N1CC[C@H](NS(=O)(=O)CCc2ccc(Cl)s2)C1=O [Example 17, 2-(5-chlorothien-2-yl)-N-{(3S)-1-[(1S,2R)-2-methoxy-1-(morpholin-4-ylcarbonyl)propyl]-2-oxopyrrolidin-3-yl}ethanesulfonamide] | < 10
4 | CC[C@H](C)[C@@H](C(=O)N1CCOCC1)N1CC[C@H](NS(=O)(=O)CC(=O)c2ccc(Cl)cc2)C1=O [Example 51, 2-(4-chlorophenyl)-N-{(3S)-1-[(1S,2S)-2-methyl-1-(4-morpholinylcarbonyl)butyl]-2-oxo-3-pyrrolidinyl}-2-oxoethanesulfonamide] | < 50
5 | CCOC(=O)CN([C@H]1CCN([C@@H](C)C(=O)N2CCOCC2)C1=O)S(=O)(=O)CCc1ccc(Cl)s1 [Example 34, Ethyl N-{[2-(5-chlorothien-2-yl)ethyl]sulfonyl}-N-{(3S)-1-[(1S)-1-methyl-2-morpholin-4-yl-2-oxoethyl]-2-oxopyrrolidin-3-yl}glycinate] | < 25
6 | O=C(C[C@@H](C(=O)N1CCOCC1)N1CC[C@H](NS(=O)(=O)CCc2ccc(Cl)s2)C1=O)N1CCOCC1 [Example 31] | < 200
7 | C[C@@H](C(=O)N1CCOCC1)N1CC[C@H](NS(=O)(=O)CC2CCc3cc(Cl)ccc32)C1=O (stereo partly drawn) [Example 61, 1-(5-chloro-2,3-dihydro-1H-inden-1-yl)-N-{(3S)-1-[(1S)-1-methyl-2-(4-morpholinyl)-2-oxoethyl]-2-oxo-3-pyrrolidinyl}methanesulfonamide] | < 100
8 | CC[C@H](C)[C@@H](C(=O)N1CCOCC1)N1CC[C@H](NS(=O)(=O)CC(F)(F)c2ccc(Cl)cc2)C1=O [Example 29, 2-(4-chlorophenyl)-2,2-difluoro-N-{(3S)-1-[(1S,2S)-2-methyl-1-(morpholin-4-ylcarbonyl)butyl]-2-oxopyrrolidin-3-yl}ethanesulfonamide] | < 25
9 | CC[C@H](C)[C@@H](C(=O)N1CCOCC1)N1CC[C@H](NS(=O)(=O)CC(O)c2ccc(Cl)cc2)C1=O (stereo partly drawn) [Example 53, 2-(4-chlorophenyl)-2-hydroxy-N-{(3S)-1-[(1S,2S)-2-methyl-1-(4-morpholinylcarbonyl)butyl]-2-oxo-3-pyrrolidinyl}ethanesulfonamide] | < 100
10 | CC[C@H](C)[C@@H](C(=O)N1CCOCC1)N1CC[C@H](N(CC(=O)NC)S(=O)(=O)CCc2ccc(Cl)s2)C1=O [Example 39, N^2-{[2-(5-chlorothien-2-yl)ethyl]sulfonyl}-N^1-methyl-N^2-{(3S)-1-[(1S,2S)-2-methyl-1-(morpholin-4-ylcarbonyl)butyl]-2-oxopyrrolidin-3-yl}glycinamide] | < 25
11 | CC[C@H](C)[C@@H](C(=O)N1CCOCC1)N1CC[C@H](NS(=O)(=O)CC2CCc3cc(Cl)ccc32)C1=O (stereo partly drawn) [Example 63, 1-(5-chloro-2,3-dihydro-1H-inden-1-yl)-N-{(3S)-1-[(1S,2S)-2-methyl-1-(4-morpholinylcarbonyl)butyl]-2-oxo-3-pyrrolidinyl}methanesulfonamide] | < 50
12 | C[C@@H](C(=O)N1CCOCC1)N1CC[C@H](NS(=O)(=O)CCc2ccc(Cl)cn2)C1=O [Example 47, 2-(5-chloro-2-pyridinyl)-N-{(3S)-1-[(1S)-1-methyl-2-(4-morpholinyl)-2-oxoethyl]-2-oxo-3-pyrrolidinyl}ethanesulfonamide] | < 100
13 | C[C@@H](C(=O)N1CCOCC1)N1CC[C@H](NS(=O)(=O)CCc2ccc(Br)cc2)C1=O [Example 33, 2-(4-bromophenyl)-N-{(3S)-1-[(1S)-1-methyl-2-morpholin-4-yl-2-oxoethyl]-2-oxopyrrolidin-3-yl}ethanesulfonamide] | < 25
14 | CC(C)OC[C@@H](C(=O)N1CCOCC1)N1CC[C@H](NS(=O)(=O)CCc2ccc(Cl)s2)C1=O [Example 84, 2-(5-chloro-2-thienyl)-N-{(3S)-1-[(1S)-1-{[(1-methylethyl)oxy]methyl}-2-(4-morpholinyl)-2-oxoethyl]-2-oxo-3-pyrrolidinyl}ethanesulfonamide] | < 10

Now from value to molecule:

Row | Ki [nM] | SMILES
15 | < 200 | O=C(O)C[C@@H](C(=O)N1CCOCC1)N1CC[C@H](NS(=O)(=O)CCc2ccc(Cl)s2)C1=O [Example 46]
16 | < 50 | C/C(=C\S(=O)(=O)N[C@H]1CCN([C@@H](CCN2CCOCC2)C(=O)N2CCOCC2)C1=O)c1ccc(Cl)s1 [Example 96, (1E)-2-(5-chloro-2-thienyl)-N-{(3S)-1-[(1S)-3-(4-morpholinyl)-1-(4-morpholinylcarbonyl)propyl]-2-oxo-3-pyrrolidinyl}-1-propene-1-sulfonamide]
17 | < 100 | COC[C@@H](C(=O)N1CCOCC1)N1CC[C@H](NS(=O)(=O)CC(C)c2ccc(Cl)s2)C1=O (stereo partly drawn) [Example 58, 2-(5-chloro-2-thienyl)-N-{(3S)-1-[(1S)-1-[(methyloxy)methyl]-2-(4-morpholinyl)-2-oxoethyl]-2-oxo-3-pyrrolidinyl}-1-propanesulfonamide]
18 | < 10 | C/C(=C\S(=O)(=O)N[C@H]1CCN([C@@H](Cc2ccccc2)C(=O)N2CCOCC2)C1=O)c1ccc(Cl)s1 [Example 14, (1E)-N-{(3S)-1-[(1S)-1-benzyl-2-morpholin-4-yl-2-oxoethyl]-2-oxopyrrolidin-3-yl}-2-(5-chlorothien-2-yl)prop-1-ene-1-sulfonamide]
19 | > 200 | C[C@@H](C(=O)N1CCOCC1)N1CC[C@H](NS(=O)(=O)/C=C/c2ccc(Cl)cc2)C1=O [(E)-2-(4-chlorophenyl)-N-{(3S)-1-[(1S)-1-methyl-2-morpholin-4-yl-2-oxoethyl]-2-oxopyrrolidin-3-yl}ethenesulfonamide, reference compound]
20 | < 10 | CC[C@@H](C(=O)N1CCOCC1)N1CC[C@H](NS(=O)(=O)/C=C(\C)c2ccc(Cl)s2)C1=O [Example 7, (1E)-2-(5-chlorothien-2-yl)-N-{(3S)-1-[(1S)-1-(morpholin-4-ylcarbonyl)propyl]-2-oxopyrrolidin-3-yl}prop-1-ene-1-sulfonamide]
21 | < 10 | CC[C@H](C)[C@@H](C(=O)N1CCOCC1)N1CC[C@H](NS(=O)(=O)/C=C(\C)c2ccc(Cl)s2)C1=O [Example 11, (1E)-2-(5-chlorothien-2-yl)-N-{(3S)-1-[(1S,2S)-2-methyl-1-(morpholin-4-ylcarbonyl)butyl]-2-oxopyrrolidin-3-yl}prop-1-ene-1-sulfonamide]
22 | < 10 | CCOC[C@@H](C(=O)N1CCOCC1)N1CC[C@H](NS(=O)(=O)CCc2ccc(Cl)s2)C1=O [Example 85, 2-(5-chloro-2-thienyl)-N-{(3S)-1-[(1S)-1-[(ethyloxy)methyl]-2-(4-morpholinyl)-2-oxoethyl]-2-oxo-3-pyrrolidinyl}ethanesulfonamide]
23 | < 10 | C/C(=C\S(=O)(=O)N[C@H]1CCN([C@@H](CC(=O)OCc2ccccc2)C(=O)N2CCOCC2)C1=O)c1ccc(Cl)s1 [Example 22, Benzyl (3S)-3-[(3S)-3-({[(1E)-2-(5-Chlorothien-2-yl)prop-1-enyl]sulfonyl}amino)-2-oxopyrrolidin-1-yl]-4-morpholin-4-yl-4-oxobutanoate]
24 | < 100 | CC(CS(=O)(=O)N[C@H]1CCN([C@@H](C)C(=O)N2CCOCC2)C1=O)c1ccc(Cl)s1 (stereo partly drawn) [Example 54, 2-(5-chloro-2-thienyl)-N-{(3S)-1-[(1S)-1-methyl-2-(4-morpholinyl)-2-oxoethyl]-2-oxo-3-pyrrolidinyl}-1-propanesulfonamide]
25 | < 50 | O=C(C(c1cccnc1)N1CC[C@H](NS(=O)(=O)CCc2ccc(Cl)s2)C1=O)N1CCOCC1 (mixture of isomers) [Example 92, 2-(5-chloro-2-thienyl)-N-{(3S)-1-[2-(4-morpholinyl)-2-oxo-1-(3-pyridinyl)ethyl]-2-oxo-3-pyrrolidinyl}ethanesulfonamide]
26 | < 50 | CN(Cc1ccccc1)C(=O)C[C@@H](C(=O)N1CCOCC1)N1CC[C@H](NS(=O)(=O)CCc2ccc(Cl)s2)C1=O [Example 83, (3S)-3-[(3S)-3-({[2-(5-chloro-2-thienyl)ethyl]sulfonyl)amino)-2-oxo-1-pyrrolidinyl]-N-methyl-4-(4-morpholinyl)-4-oxo-N-(phenylmethyl)butanamide]
27 | < 100 | C[C@@H](C(=O)N1CCOCC1)N1CC[C@H](NS(=O)(=O)/C=C(/c2ccc(Cl)s2)C(F)(F)F)C1=O [Example 41, (1E)-2-(5-chlorothien-2-yl)-3,3,3-trifluoro-N-{(3S)-1-[(1S)-1-methyl-2-morpholin-4-yl-2-oxoethyl]-2-oxopyrrolidin-3-yl}prop-1-ene-1-sulfonamide]

— US20060166985A1, “Pyrrolydin-2-one derivatives as inhibitors of thrombin and factor xa” (priority 2002, published 2006)
